US11858919B2, “HDAC1,2 inhibitors” (REGENACY PHARMACEUTICALS, LLC, priority 2018, dated 2024)
Like-named read-outs stand apart in the source and are kept apart here.

Tests used:
HDAC3 = target: T1, HDAC3 (Homo sapiens, UniProt O15379); assay: HDAC enzyme assay, HDAC3 (fluorescence, tripeptide substrate/trypsin); type: biochemical; settings: 0.08 ng/ml enzyme, 17 μM substrate, 10 min preincubation
T1 construct: purchased BPS Biosciences
Protocol: (§1) Compounds for testing were diluted in […] to 50 fold the final concentration and a ten-point three-fold dilution series was made. The compounds were diluted in assay buffer (50 mM HEPES, pH 7.4, 100 mM KCl, 0.001% Tween-20, 0.05% BSA, 20 μM TCEP) to 6-fold their final concentration. The HDAC enzymes (purchased from BPS Biosciences) were diluted to 1.5-fold their final concentration in assay buffer. The tripeptide substrate and trypsin at 0.05 μM final concentration were diluted in assay buffer at 6-fold their final concentration. The final enzyme concentrations used in these assays were 3.3 ng/ml (HDAC1), 0.2 ng/ml (HDAC2) and 0.08 ng/ml (HDAC3). The final substrate concentrations used were 16 μM (HDAC1), 10 μM (HDAC2) and 17 μM (HDAC3).
(§2) Five μl of compounds and 20 μl of enzyme were added to wells of a black, opaque 384 well plate in duplicate. Enzyme and compound were incubated together at room temperature for 10 minutes. Five μl of substrate was added to each well, the plate was shaken for 60 seconds and placed into a Victor 2 microtiter plate reader. The development of fluorescence was monitored for 60 min and the linear rate of the reaction was calculated. The IC50 was determined using Graph Pad Prism by a four parameter curve fit.

HDAC2 = target: T2, HDAC2 (Homo sapiens, UniProt Q92769); assay: HDAC enzyme assay, HDAC2 (fluorescence, tripeptide substrate/trypsin); type: biochemical; settings: 0.2 ng/ml enzyme, 10 μM substrate, 10 min preincubation
T2 construct: purchased BPS Biosciences
Protocol: as §1, §2

HDAC1 = target: T3, HDAC1 (Homo sapiens, UniProt Q13547); assay: HDAC enzyme assay, HDAC1 (fluorescence, tripeptide substrate/trypsin); type: biochemical; settings: 3.3 ng/ml enzyme, 16 μM substrate, 10 min preincubation
T3 construct: purchased BPS Biosciences
Protocol: as §1, §2

[1] = Pharmacokinetics in male SD rats (cassette dosing, IV and PO), plasma level by LC/MS/MS; type: in vivo; settings: male SD rat; for bioavailability: dose adjusted PO AUC (5 mg/kg) to IV AUC (1 mg/kg), read-out: F % (oral bioavailability); for CL renal: read-out: IV Clr.
Protocol: Male SD rats were fasted overnight. Compounds of the invention were dissolved in dimethyl acetamide at 10 times the final concentration, then Solutol HS 15 (BASF) was added to a final concentration of 10%. Finally, 80% saline was added and vortexed to achieve a clear solution. For the IV dosing three animals were injected via the foot dorsal vein with 1 mg/kg compound. For the PO dosing 5 mg/kg of compound was delivered by oral gavage. Blood was collected via the tail vein into K2EDTA tubes at 5 minutes, 15 minutes, 30 minutes, 1 hour, 2 hours, 4 hours, 8 hours and 24 hours after dosing. The blood was centrifuged at 2000 g for 5 minutes at 4° C. to obtain plasma. The plasma was extracted with acetonitrile and the level of compound was analyzed by LC/MS/MS. The level of compound in plasma was calculated from a standard curve in rat plasma. The IV clearance (L/h/kg) and area under the curve (h*ng/mL) were calculated using WinNonLin software. The dose adjusted area under the curve for the IV and oral dosing were used to calculate the oral bioavailability.
Pharmacokinetic properties were assessed in a rat cassette dosing experiment. The IV clearance (IV Clr.) is in units of L/hr/kg. The oral maximum plasma concentration (PO Cmax) is in units of ng/ml. The oral plasma half-life (PO T½) is in units of hours. The oral area under the curve (PO AUC) is in units of hours*ng/ml. The fraction absorbed by the oral route (F %) is a percentage of the oral area under the curve to the IV area under the curve, dose adjusted.

[2] = PO 5 mg/kg oral gavage, read-out: PO AUC
[3] = PO 5 mg/kg oral gavage, read-out: PO t1/2

T2 sequence (Q92769 whole entry): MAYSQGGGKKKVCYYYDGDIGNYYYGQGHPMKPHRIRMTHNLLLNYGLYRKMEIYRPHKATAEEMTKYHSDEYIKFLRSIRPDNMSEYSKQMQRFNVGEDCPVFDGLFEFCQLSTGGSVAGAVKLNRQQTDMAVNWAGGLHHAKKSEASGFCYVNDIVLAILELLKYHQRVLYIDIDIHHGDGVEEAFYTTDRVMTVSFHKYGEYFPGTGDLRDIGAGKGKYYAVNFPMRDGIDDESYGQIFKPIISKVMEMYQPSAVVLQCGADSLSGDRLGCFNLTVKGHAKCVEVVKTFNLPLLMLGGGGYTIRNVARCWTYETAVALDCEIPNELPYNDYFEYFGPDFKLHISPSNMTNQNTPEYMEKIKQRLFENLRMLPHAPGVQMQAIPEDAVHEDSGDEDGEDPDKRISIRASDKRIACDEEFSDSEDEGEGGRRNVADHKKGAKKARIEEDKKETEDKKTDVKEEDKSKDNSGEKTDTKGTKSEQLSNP
T1 sequence (O15379 whole entry): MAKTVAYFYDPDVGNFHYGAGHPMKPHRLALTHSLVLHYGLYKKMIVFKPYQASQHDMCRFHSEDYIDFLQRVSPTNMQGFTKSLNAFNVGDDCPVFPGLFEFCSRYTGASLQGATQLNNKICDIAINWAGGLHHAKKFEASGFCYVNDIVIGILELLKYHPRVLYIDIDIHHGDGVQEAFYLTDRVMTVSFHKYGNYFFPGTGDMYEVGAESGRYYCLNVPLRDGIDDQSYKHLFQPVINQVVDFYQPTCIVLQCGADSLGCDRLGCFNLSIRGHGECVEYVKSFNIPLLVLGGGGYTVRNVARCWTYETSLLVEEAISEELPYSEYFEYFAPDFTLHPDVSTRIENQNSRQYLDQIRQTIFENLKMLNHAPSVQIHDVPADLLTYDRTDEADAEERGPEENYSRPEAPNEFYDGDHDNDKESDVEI
T1 sequence (Q9Y618 395-489 partner limits assumed): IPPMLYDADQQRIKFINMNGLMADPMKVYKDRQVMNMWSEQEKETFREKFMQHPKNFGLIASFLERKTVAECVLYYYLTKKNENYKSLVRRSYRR
T3 sequence (Q13547 whole entry): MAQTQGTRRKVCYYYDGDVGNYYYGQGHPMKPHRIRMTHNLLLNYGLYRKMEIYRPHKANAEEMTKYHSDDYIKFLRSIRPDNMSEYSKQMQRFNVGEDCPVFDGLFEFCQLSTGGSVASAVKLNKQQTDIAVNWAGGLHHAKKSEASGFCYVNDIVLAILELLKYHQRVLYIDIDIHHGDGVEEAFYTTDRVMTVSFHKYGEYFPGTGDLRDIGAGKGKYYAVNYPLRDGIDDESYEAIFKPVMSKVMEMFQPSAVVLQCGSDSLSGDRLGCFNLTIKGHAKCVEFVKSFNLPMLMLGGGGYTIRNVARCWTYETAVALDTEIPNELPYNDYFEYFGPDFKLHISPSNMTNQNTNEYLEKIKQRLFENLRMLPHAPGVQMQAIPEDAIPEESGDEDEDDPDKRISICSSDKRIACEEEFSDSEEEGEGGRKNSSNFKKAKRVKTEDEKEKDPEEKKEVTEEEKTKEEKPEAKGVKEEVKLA

| Structure (SMILES) | IC50 (HDAC3) [nM] | IC50 (HDAC2) [nM] | IC50 (HDAC1) [nM] | AUC ([1]; IV 1 mg/kg, read-out: IV AUC) [ng·h/mL] | Cmax ([1]; PO 5 mg/kg oral gavage) [ng/mL] | AUC [1, 2] [ng·h/mL] | bioavailability [1] [%] | IV clearance ([1]; IV 1 mg/kg) [mL/min/kg] | half-life ([1]; IV 1 mg/kg, read-out: IV t1/2) [h] | half-life [1, 3] [h] | CL renal ([1]; IV 1 mg/kg) [mL/min/kg] |
| --- | --- | --- | --- | --- | --- | --- | --- | --- | --- | --- | --- |
| CN1C(=O)Cc2cc(C(=O)Nc3cc(-c4cccs4)ccc3N)ccc21 [Compound 001] | 340 to 350 | 10 to 15 | 5 to 10 | 40000 to 40200 | 6950 to 7000 | 140000 | 65 to 75 | – | – | – | – |
| Nc1ccc(-c2ccccc2)cc1NC(=O)c1ccc2c(c1)CC(=O)N2CC1CC1 [Compound 002] | 925 to 935 | 45 to 50 | 20 to 25 | 6500 to 6600 | 2450 to 2500 | 22400 | 65 to 75 | 0.167 to 8.33 | 1 to 5 | 5 to 10 | – |
| Nc1ccc(-c2cccs2)cc1NC(=O)c1ccc2c(c1)CC(=O)N2CCN1CCOCC1 [Compound 003] | 145 to 590 | 5 to 25 | 1 to 10 | 1800 to 1900 | 950 to 1000 | 11400 to 11600 | 130 to 140 | 1.67 to 16.7 | 5 to 10 | 5 to 10 | – |
| Nc1ccc(-c2cccs2)cc1NC(=O)c1ccc2c(c1)CC(=O)N2 [Compound 004] | 530 to 540 | 25 to 30 | 5 to 10 | 10600 to 10800 | 3500 to 3550 | 61200 to 61400 | 110 to 115 | 0.167 to 8.33 | 15 to 20 | 10 to 15 | – |
| Nc1ccc(-c2cccs2)cc1NC(=O)c1ccc2c(c1)CC(=O)N2CCN1CCCCC1 [Compound 006] | 1130 to 1140 | 70 to 75 | 10 to 15 | – | – | – | – | – | – | – | – |
| CN1C(=O)Cc2cc(C(=O)Nc3cc(-c4ccc(O)cc4)ccc3N)ccc21 [Compound 007] | 2740 to 2750 | 60 to 65 | 25 to 30 | – | – | – | – | – | – | – | – |
| Nc1ccc(-c2ccccc2)cc1NC(=O)c1ccc2ncn(CCN3CCOCC3)c2c1 [Compound 008] | > 2000 | > 2000 | 625 to 650 | – | – | – | – | – | – | – | – |
| Nc1ccc(-c2cccs2)cc1NC(=O)c1ccc2[nH]c(C3CC3)nc2c1 [Compound 009] | 470 to 480 | 40 to 45 | 10 to 15 | 10800 | 4150 to 4200 | 65200 to 65400 | 115 to 125 | 0.167 to 8.33 | 15 to 20 | 10 to 15 | – |
| Cn1cnc2ccc(C(=O)Nc3cc(-c4cccs4)ccc3N)cc21 [Compound 010] | 985 to 995 | 210 to 220 | 375 to 380 | – | – | – | – | – | – | – | – |
| Nc1ccc(-c2cccs2)cc1NC(=O)c1ccc2c(c1)CC(=O)N2CC1CC1 [Compound 011] | 490 to 500 | 35 to 40 | 10 to 15 | 2000 to 2100 | 700 to 750 | 8000 to 8100 | 80 to 90 | 1.67 to 16.7 | 5 to 10 | 5 to 10 | – |
| CN1C(=O)Cc2cc(C(=O)Nc3cc(-c4ccccc4)ccc3N)ccc21 [Compound 012] | 875 to 885 | 20 to 30 | 25 to 35 | 29800 to 30000 | 8200 to 8250 | 9450 to 9550 | 60 to 70 | 0.167 to 8.33 | 5 to 10 | 15 to 20 | – |
| Nc1ccc(-c2ccccc2)cc1NC(=O)c1ccc2c(c1)CC(=O)N2CCN1CCOCC1 [Compound 013] | 1040 to 1050 | 70 to 80 | 25 to 35 | 2700 to 2800 | 1900 to 1950 | 11800 | 80 to 90 | 1.67 to 16.7 | 1 to 5 | 1 to 5 | – |
| CN1C(=O)C(C)(C)c2cc(C(=O)Nc3cc(-c4cccs4)ccc3N)ccc21 [Compound 014] | 3370 to 3380 | 2140 to 2150 | 4180 to 4200 | – | – | – | – | – | – | – | – |
| CN1C(=O)Cc2cc(C(=O)Nc3cc(-c4ccco4)ccc3N)ccc21 [Compound 015] | 640 to 650 | 30 to 40 | 15 to 25 | – | – | – | – | – | – | – | – |
| Nc1ccc(-c2cccs2)cc1NC(=O)c1ccc2c(c1)CC(=O)N2CCCN1CCOCC1 [Compound 016] | 710 to 720 | 5 to 15 | 1 to 10 | – | – | – | – | – | – | – | – |
| Nc1ccc(-c2ccccc2)cc1NC(=O)c1ccc2c(c1)ncn2CCN1CCOCC1 [Compound 017] | 450 to 460 | 10 to 20 | 1 to 10 | – | – | – | – | – | – | – | – |
| Nc1ccc(-c2cccs2)cc1NC(=O)c1ccc2[nH]cnc2c1 [Compound 018] | 150 to 235 | 20 to 35 | 1 to 10 | 19600 to 19800 | 5550 to 5600 | 81800 to 82000 | 75 to 85 | 0.167 to 8.33 | 10 to 15 | 5 to 10 | – |
| Cn1cnc2cc(C(=O)Nc3cc(-c4cccs4)ccc3N)ccc21 [Compound 019] | 690 to 700 | 35 to 40 | 15 to 20 | – | – | – | – | – | – | – | – |
| Cc1nc2ccc(C(=O)Nc3cc(-c4cccs4)ccc3N)cc2[nH]1 [Compound 020] | 1300 to 1310 | 25 to 30 | 5 to 10 | – | – | – | – | – | – | – | – |
| Nc1ccc(-c2cccs2)cc1NC(=O)c1ccc2c(c1)ncn2CCN1CCOCC1 [Compound 021] | 430 to 440 | 15 to 20 | 5 to 10 | 3700 to 3800 | 5250 to 5300 | 21400 | 110 to 120 | 1.67 to 16.7 | 1 to 5 | 1 to 5 | – |
| Nc1ccc(-c2cccs2)cc1NC(=O)c1ccc2ncn(CCN3CCOCC3)c2c1 [Compound 022] | 1210 to 1220 | 1240 to 1250 | 885 to 895 | – | – | – | – | – | – | – | – |
| CN(C)CCNc1ccc2cc(C(=O)Nc3cc(-c4cccs4)ccc3N)ncc2c1 [Compound 024] | 15 to 90 | 5 to 10 | < 5 | 20 to 25 | – | – | – | – | 15 to 20 | – | < 8.33 |
| CN(C)CCNc1ccc2cc(C(=O)Nc3cc(-c4cccs4)ccc3N)cnc2c1 [Compound 025] | 110 to 200 | 15 to 20 | 5 to 15 | 15 to 20 | – | – | – | – | 1 to 5 | – | < 8.33 |
| CNCCCOc1ccc2cc(C(=O)Nc3cc(-c4cccs4)ccc3N)cnc2c1 [Compound 026] | 85 to 95 | 20 to 25 | 25 to 30 | – | – | – | – | – | – | – | – |
| CN1CCN(c2ccc3cc(C(=O)Nc4cc(-c5nccn5C)ccc4N)cnc3c2)CC1 [Compound 027] | > 2000 | > 2000 | > 2000 | – | – | – | – | – | – | – | – |
| Nc1ccc(-c2cccs2)cc1NC(=O)c1ccc2nc(N3CCNCC3)ccc2c1 [Compound 028] | 290 to 300 | 50 to 60 | 50 to 60 | – | – | – | – | – | – | – | – |
| COCCNc1ccc2cc(C(=O)Nc3cc(-c4cccs4)ccc3N)cnc2c1 [Compound 029] | 750 to 760 | 50 to 105 | 15 to 25 | 20 to 25 | – | – | – | – | 1 to 3 | – | < 1.67 |
| COCCN(C)c1ccc2cc(C(=O)Nc3cc(-c4cccs4)ccc3N)cnc2c1 [Compound 030] | 1200 to 1230 | 155 to 160 | 50 to 55 | 1 to 5 | – | – | – | – | < 0.5 | – | < 1.67 |
| CN(C)CCN(C)c1ccc2cc(C(=O)Nc3cc(-c4cccs4)ccc3N)cnc2c1 [Compound 031] | 240 to 250 | 15 to 25 | < 5 | 1 to 5 | – | – | – | – | 0.5 to 1 | – | < 3.33 |
| CN1CCN(c2ccc3cc(C(=O)Nc4cc(-c5cccs5)ccc4N)cnc3c2)CC1 [Compound 032] | 280 to 300 | 25 to 35 | 5 to 10 | < 15 | – | – | – | – | 0.5 to 2 | – | < 8.33 |
